Laboratory results as given in ChEMBL document CHEMBL1128004, “Ketones related to the benzoate 5-HT4 receptor antagonist RS-23597 are high affinity partial agonists” (Bioorg Med Chem Lett, 1994).

Tests used:
[1] = target: 5-hydroxytryptamine receptor 4 (Homo sapiens) (UniProt Q13639); assay: Intrinsic activity relative to the 5-HT was determined; type: functional; details: Rattus norvegicus
[2] = target: 5-hydroxytryptamine receptor 4 (Homo sapiens) (UniProt Q13639); assay: Compound was tested for 5-HT4 receptor in rat esophageal muscularis mucosae; Antagonist; type: functional; details: filed as antagonist, target entry is the homologue from another species
[3] = target: 5-hydroxytryptamine receptor 4 (Homo sapiens) (UniProt Q13639); assay: Compound was tested for antagonist activity against 5-HT4 receptor in rat esophageal muscularis mucosae; type: functional, tissue-based; details: Muscularis mucosa, target entry is the homologue from another species

Sequence of 5-hydroxytryptamine receptor 4 (Homo sapiens) (Q13639 whole entry): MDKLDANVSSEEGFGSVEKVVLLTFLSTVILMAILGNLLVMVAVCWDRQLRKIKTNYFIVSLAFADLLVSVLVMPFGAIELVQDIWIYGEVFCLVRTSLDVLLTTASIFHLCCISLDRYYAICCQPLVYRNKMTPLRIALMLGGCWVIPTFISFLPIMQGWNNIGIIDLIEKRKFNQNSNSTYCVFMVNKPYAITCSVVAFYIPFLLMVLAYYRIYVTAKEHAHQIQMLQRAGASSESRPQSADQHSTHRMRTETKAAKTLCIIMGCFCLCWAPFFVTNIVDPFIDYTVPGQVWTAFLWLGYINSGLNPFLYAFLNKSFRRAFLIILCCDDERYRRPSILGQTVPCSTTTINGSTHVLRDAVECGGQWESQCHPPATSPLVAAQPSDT

Compound	Intrinsic activity [1]	other results
COc1cc(N)c(Cl)cc1C(=O)CCC1CCN(CCNS(C)(=O)=O)CC1	0.5	
CCN(CC)CCNC(=O)c1cc(Cl)c(N)cc1OC	0.5	
COc1cc(N)c(Cl)cc1C(=O)CCC1CCN(CCCNS(C)(=O)=O)CC1		Activity [2]: Antagonist
CCN(CC)CCOC(=O)c1cc(Cl)c(N)cc1OC		pKb [3]: 7.3
COc1cc(N)c(Cl)cc1C(=O)OCCCN1CCCCC1		pKb [3]: 7.9
COc1cc(N)c(Cl)cc1C(=O)NCCN1CCCCC1	0.6	
COc1cc(N)c(Cl)cc1C(=O)NC[C@@H]1CCN2CCC[C@@H]12	0.6	
COc1cc(N)c(Cl)cc1C(=O)OCCN1CCCCC1	0.5	
